Reference: PubChem BioAssay (NCI)
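Results reflect a 48-hour exposure of cells in 96-well plates to compound at five concentrations. GI50 = concentration required for 50% inhibition of growth. Definition used: TGI = concentration required for complete inhibition of growth.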

Experiments:
Experiment in all cases: DTP human tumour cell line panel, 48 h
[1] = tested on: SR leukemia
[2] = tested on: SF-268 CNS
[3] = tested on: OVCAR-3 ovarian
[4] = tested on: KM12 colon
[5] = tested on: SK-MEL-28 melanoma
[6] = tested on: NCI-H23 lung
[7] = tested on: UO-31 renal
[8] = tested on: RXF 393 renal
[9] = tested on: OVCAR-8 ovarian
[10] = tested on: K-562 leukemia

Row | SMILES | GI50 [1] [µM] | TGI [1] [µM] | GI50 [2] [µM] | TGI [2] [µM] | GI50 [3] [µM] | TGI [3] [µM] | GI50 [4] [µM] | TGI [4] [µM] | GI50 [5] [µM] | TGI [5] [µM] | GI50 [6] [µM] | TGI [6] [µM] | GI50 [7] [µM] | TGI [7] [µM] | GI50 [8] [µM] | TGI [8] [µM] | GI50 [9] [µM] | TGI [9] [µM] | GI50 [10] [µM] | TGI [10] [µM]
1 | COc1ccc(Nc2c3ccccc3nc3occc23)cc1 | > 100 | > 100 | 3.68 | 34 | 0.366 | 4.2 | 0.274 | 5.43 | 3.06 | 22.8 | 3.72 | > 27.6 | 22.5 | > 100 | 1.85 | 17.7 | 5.71 | > 100 | 0.292 | 
2 | COC1(OC)C2(Cl)C(Cl)=C(Cl)C1(Cl)C1C=CC=CC12 (stereo not drawn) |  | > 100 |  | > 100 |  | > 100 |  | > 100 |  | > 100 |  | > 100 |  | > 100 |  | > 100 |  | > 100 |  | > 100
3 | CN1C/C=C\CCOc2cccc(c2)-c2ccnc(n2)Nc2cccc(c2)C1 | 0.0196 | 0.116 | 0.0561 | 0.548 | 0.0419 | 0.769 | 0.0377 | 0.506 | 0.0641 | 0.451 | 0.0717 | 0.599 | 0.0324 | 0.46 | 0.0221 | 0.0501 | 0.0385 | 0.887 | 0.0931 | 6.21
4 | c1ccc2c(c1)ccn2CCc1c[nH]c2ccccc12 |  | > 10 |  | > 10 |  | > 10 |  | > 10 |  | > 10 |  | > 10 |  | > 10 |  | > 10 |  | > 10 |  | > 10
5 | COc1cc2c3c(n(CCCNC(=O)OCC4c5ccccc5-c5ccccc54)c(=O)c2cc1OC)-c1cc2c(cc1/C3=C\CCNC(=O)OCC1c3ccccc3-c3ccccc31)OCO2 | 3.29 | 21 | 1.48 | > 14 | > 44.6 | > 50 | > 27.9 | > 50 | > 50 | > 50 | 0.921 | 9.54 | > 50 | > 50 | 5.28 | 14.6 | > 35.3 | > 50 | 9.17 | > 35.8
6 | CCCN1CCC(=O)N(CCC(F)(F)C(F)(F)C(F)(F)C(F)(F)C(F)(F)C(F)(F)F)C1=S |  | > 100 |  | > 100 |  | > 100 |  | > 100 |  | > 100 |  | > 100 |  | > 100 |  | > 100 |  | > 100 |  | > 100
7 | COC(=O)[C@@H](C)CNS(=O)(=O)N(c1cc(C(F)(F)F)cc(C(F)(F)F)c1)C1CCN(Cc2ccc(F)cc2)CC1 | 3.81 | 9.22 | 11.5 | 26.3 | 10.4 | 23 | 4.92 | 17.6 | 14 | 27.8 | 12.2 | 25.9 | 11.7 | 26 | 10.6 | 23.7 | 14.6 | 33.4 | 4.63 | 16
8 | CCOC(=O)[C@@H](N)CCC(=O)N[C@@H](CSCc1ccccc1)C(=O)N[C@@H](C(=O)OCC)c1ccccc1 | 9.97 | 33.2 | 16.6 | 31.3 | 16.7 | 30.7 | 18.1 | 33.8 | 16.7 | 31.7 | 18.8 | 40.9 | 34.5 | > 59.5 | 14.1 | 27.5 | 16.8 | 32.5 | 22.2 | 75
9 | CN(C)C(=O)c1cc2cnc(Nc3ccc(-c4csc5c(=S)cc(N6CCOCC6)oc45)cc3)nc2n1C1CCCC1 | 0.145 | > 50 | 0.693 | > 50 | 0.91 | > 50 | 0.18 | > 50 | 0.752 | > 50 | 0.699 | > 19.5 | 0.227 | 1.54 | 0.139 | 0.495 | 0.744 | > 50 | 0.939 | > 50
10 | N#CC(NNC(=O)Cc1ccccc1)c1c(O)ccc2ccccc12 (stereo not drawn) |  | 38.3 |  | 54.5 |  | 26.5 |  | > 72.4 |  | 97.7 |  | 37.8 |  | 11.2 |  | 41.9 |  | 52.2 |  | > 100
11 | Cn1c2c(c3ccccc31)CC1c3c(c4ccccc4n3C)CC21 (stereo not drawn) |  | > 100 |  | > 100 |  | > 100 |  | > 100 |  | > 100 |  | > 100 |  | > 100 |  | > 100 |  | > 100 |  | > 100
12 | NS(=O)(=O)c1ccc(NC2(C(=O)O)CCCC2)cc1 |  | > 100 |  | > 100 |  | > 100 |  | > 100 |  | > 100 |  | > 100 |  | > 100 |  | > 100 |  | > 100 |  | > 100
13 | CC(C)C(Nc1c2ccccc2nc2ccccc12)C(=O)O (stereo not drawn) |  | > 100 |  | > 100 |  | > 100 |  | > 100 |  | > 100 |  | > 100 |  | > 100 |  | > 100 |  | > 100 |  | > 100
14 | COc1cc(C=C2C(=O)NC(=O)NC2=O)cc(OC)c1OC |  | > 100 |  | > 100 |  | > 100 |  | > 100 |  | > 100 |  | > 100 |  | > 100 |  | > 100 |  | > 100 |  | > 100
15 | CCCCCCCC/C=C/CCCCCCCC(=O)OC[C@H]1O[C@@H](n2ccc(N)nc2=O)C(F)(F)[C@@H]1O | < 0.0134 | 11.1 | < 0.0224 | 19.7 | 8.86 | > 100 | > 100 | > 100 | > 51.1 | > 100 | < 0.0143 | 21.1 | < 0.0136 | 0.125 | 0.0675 | > 49.2 | < 0.01 |  | 0.307 | > 100
16 | O=C(O)C1OC(n2cc(F)c(=O)[nH]c2=O)CC1O (stereo not drawn) |  | > 100 |  | > 100 |  | > 100 |  | > 100 |  | > 63.1 |  | > 100 |  | > 100 |  | > 100 |  | > 100 |  | > 100

Row | SMILES | GI50 [1] [µM] | TGI [1] [µM] | GI50 [2] [µM] | TGI [2] [µM] | GI50 [3] [µM] | TGI [3] [µM] | GI50 [4] [µM] | TGI [4] [µM] | GI50 [5] [µM] | TGI [5] [µM] | GI50 [6] [µM] | TGI [6] [µM] | GI50 [7] [µM] | TGI [7] [µM] | GI50 [8] [µM] | TGI [8] [µM] | GI50 [9] [µM] | TGI [9] [µM] | GI50 [10] [µM] | TGI [10] [µM]
17 | COc1cc2c(cc1OC)C(CC(=O)NN=C(C)C)NCC2 (stereo not drawn) |  | > 100 |  | > 100 |  | > 100 |  | > 100 |  | > 100 |  | > 100 |  | > 100 |  | > 100 |  | > 100 |  | > 100
18 | CCOC(=O)c1c(C)n(Cc2ccc(Cl)cc2Cl)c2c1c(CN(C)C)c(O)c1[nH]cnc12 | 0.557 | 4.76 | 15.1 | 28.3 | 17.3 | 33.5 | 17.8 | 35.8 | 20.9 | 41 | 0.271 | 5.95 | 18.9 | 36.5 | 14.7 | 28.7 | 15.1 | 28.3 | 3.22 | 15.5
19 | O=C(Cc1ccccc1)NN1C(=O)C(Cl)C1c1cc(Br)ccc1O (stereo not drawn) |  | > 100 |  | 50 |  | > 100 |  | > 100 |  | > 100 |  | 53.3 |  | 46.8 |  | > 100 |  | 69.2 |  | 42.7
20 | Cc1nc(N)sc1C(=O)/C=C\c1ccc2c(c1)OCO2 |  | > 100 |  | > 100 |  | > 100 |  | > 100 |  | > 100 |  | > 100 |  | > 100 |  | > 100 |  | > 100 |  | > 100
21 | NCCCCN(CCCN)/[N+]([O-])=N\O |  | > 100 |  | > 100 |  | > 100 |  | > 100 |  | > 100 |  | > 100 |  | > 100 |  | > 100 |  | > 100 |  | > 100
22 | Cn1c(=O)c(C(c2ccc([N+](=O)[O-])cc2)c2c(O)c3ccccc3n(C)c2=O)cc2ccccc21 (stereo not drawn) |  | > 100 |  | > 100 |  | > 100 |  | > 100 |  | > 100 |  | > 100 |  | > 100 |  | > 100 |  | > 100 |  | > 100
23 | C1=CC2SSSC2C1 (stereo not drawn) |  | > 100 |  | > 100 |  | > 100 |  | > 100 |  | > 100 |  | > 100 |  | > 100 |  | > 100 |  | > 100 |  | > 100
24 | CC1CC[C@]2(C(=O)O)CCC3(C)C(=CC(=O)C4[C@@]5(C)CCC(=O)C(C)(C)C5CC[C@]43C)[C@@H]2[C@H]1C (stereo partly drawn) |  | 37.5 |  | > 100 |  | 44 |  | 56.1 |  | 42.9 |  | 79.3 |  | 38.1 |  | 49.4 |  | > 100 |  | > 100
25 | CN1CCN(CCCOc2ccc3nc(Nc4ccc(Cl)c(C(F)(F)F)c4)ccc3c2)CC1 | 2.7 | 10.7 | 14.1 | 30 | 12.5 | 25.8 | 9.51 | 23.4 | 13.8 | 29.2 | 13.9 | 29.3 | 14.5 | 29.4 | 12.7 | 28 | 16.4 | 32.4 | 2.4 | 5.78
26 | COC1=CC(=O)c2nc(-c3cccc(C)n3)[nH]c2C1=O | 30.6 | > 100 | 24.7 | 49.6 | 22.9 | 46.4 | 35.4 | > 100 | 31.7 | > 100 | 28.3 | > 100 | 26.4 | > 100 | > 100 | > 100 | 24.7 | 78.2 | > 100 | > 100
27 | O=C1OC(c2ccccc2)=N/C1=C\c1cccc2ccccc12 |  | > 100 |  | > 100 |  | > 100 |  | > 100 |  | > 100 |  | > 100 |  | > 100 |  | > 100 |  | > 100 |  | > 100
28 | COC(=O)[C@H](C)NC(=O)NC(=O)NC(=O)CI | 2.43 | 5.94 | 17.2 | 36.3 | 12.3 | 25.2 | 17.8 | 35.5 | 14.4 | 29.9 | 16.8 | 36.9 | 6.83 | 20.1 | 12.5 | 25.5 | 16.6 | 33.9 | 4.16 | 17
29 | C=C1C(=O)O[C@H]2[C@H]1CC/C(COC(=O)C(=O)c1cn(Cc3ccccc3)c3ccccc13)=C\CC[C@@]1(C)O[C@@H]21 | 1 | > 100 | 2.16 | 6.3 | 2.18 | 5.65 | 3.06 | 11.5 | 2.08 | 4.98 | 1.67 | 3.56 | 1.61 | 3.1 | 1.89 | 3.43 | 3.04 | 11.4 | 2.66 | 10.4
30 | COC(=O)C1=CNC=C(C(=O)OC)C1C1=CC(=O)C(C)=CC1=O | 9.37 | 43.5 | 9.82 | 24.6 | 5.64 | 22.1 | 17.1 | 31.8 | 24.3 | > 59.6 | 16.5 | 31 | 12 | 24.5 | 31.1 | > 54.2 | 14.3 | 29.1 | 1.36 | 3.84
31 | CCCCC(O)(c1ccc(Cl)cc1)C(CN1CCOCC1)c1ccc(Cl)cc1 (stereo not drawn) | 12.5 | 32.3 | 12.6 | 27.2 | 14.5 | 28 | 12.2 | 29.1 | 15.9 | 33.9 | 10.6 | 28.7 | 12.2 | 26.2 | 8.15 | 22.8 | 15.7 | 42 | 12.2 | 41.1
32 | NP(=O)(Oc1c2occc2cc2ccc(=O)oc12)N(CCCl)CCCl (stereo not drawn) |  | > 100 |  | > 100 |  | > 100 |  | > 100 |  | > 100 |  | > 100 |  | > 100 |  | > 100 |  | > 100 |  | > 100
